How the values were obtained:
[1] = molecular target: T1, CXCR-4 transfected U87 cell line (U87.CXCR4) (Homo sapiens, UniProt P61073); assay: Intracellular CXCL-12-induced calcium mobilization assay (FLIPR); type: cell-based; conditions: U87.CXCR4 cells; CXCL-12 25-50 ng/mL; compound added 15 min before; read-out: IC50 CXCL-12 Ca^2+ flux U87.CXCR4+
T1 construct: expressed in transfected cells; host or cells: U87 (U87.CXCR4)
Protocol: Example 36: REGA Screening Assay
Intracellular CXCL-12-Induced Calcium Mobilization Assay
Intracellular calcium mobilization induced by chemokines or chemokine-derived peptides were evaluated using a calcium responsive fluorescent probe and a FLIPR system. The CXCR-4 transfected U87 cell line (U87.CXCR4) cells were seeded in gelatine-coated black-wall 96-well plates at 20,000 cells per well and incubated for 12 hours. Cells were then loaded with the fluorescent calcium probe Fluo-2 acetoxymethyl at 4 μM final concentration in assay buffer (Hanks' balanced salt solution with 20 mM HEPES buffer and 0.2% bovine serum albumin, pH 7.4) for 45 min at 37° C. The intracellular calcium mobilization induced by the CXCL-12 (25-50 ng/mL) was then measured at 37° C. by monitoring the fluorescence as a function of time in all the wells simultaneously using a fluorometric imaging plate reader (FLIPR Tetra, Molecular Devices).

[2] = molecular target: T2, Jurkat cells expressing CXCR4 (Homo sapiens, UniProt P61073); assay: Chemokine (CXCL12-AF647) binding inhibition assay; conditions: CXCL12-AF647 25 ng/mL, read-out: IC50 CXCL-12 binding Jurkat
T2 construct: endogenous in cells; host or cells: Jurkat
T2 sequence (P61073 whole entry): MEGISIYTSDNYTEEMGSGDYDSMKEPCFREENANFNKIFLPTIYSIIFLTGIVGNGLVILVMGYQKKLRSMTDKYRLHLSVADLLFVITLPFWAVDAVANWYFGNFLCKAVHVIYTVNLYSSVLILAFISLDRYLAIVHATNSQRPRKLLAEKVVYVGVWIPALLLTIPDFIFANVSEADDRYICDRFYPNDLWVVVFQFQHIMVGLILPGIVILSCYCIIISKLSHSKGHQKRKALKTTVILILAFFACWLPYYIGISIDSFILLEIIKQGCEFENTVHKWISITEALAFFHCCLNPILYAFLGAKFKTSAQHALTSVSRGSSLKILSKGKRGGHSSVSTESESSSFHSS
Protocol: Chemokine (CXCL12-AF647) Binding Inhibition Assay
Jurkat cells expressing CXCR4 were washed once with assay buffer (Hanks' balanced salt solution with 20 mM HEPES buffer and 0.2% bovine serum albumin, pH 7.4) and then incubated for 15 min at room temperature with the test compounds diluted in assay buffer at dose-dependent concentrations. Subsequently, CXCL12-AF647 (25 ng/mL) was added to the compound-incubated cells. The cells were incubated for 30 min at room temperature. Thereafter, the cells were washed twice in assay buffer, fixed in 1% paraformaldehyde in PBS, and analyzed on the FL4 channel of a FACSCalibur flow cytometer equipped with a 635-nm red diode laser (Becton Dickinson, San Jose, Calif., USA).
The percentages of inhibition of CXCL12-AF647 binding were calculated according to the formula: [1−((MFI−MFINC)/(MFIPC−MFINC))]×100 where MFI is the mean fluorescence intensity of the cells incubated with CXCL12-AF647 in the presence of the inhibitor, MFINC is the mean fluorescence intensity measured in the negative control (i.e., autofluorescence of unlabeled cells), and MFIPC is the mean fluorescence intensity of the positive control (i.e., cells exposed to CXCL12-AF647 alone).

in vitro = conditions: human, Caco-2, pH 7.4
Protocol: Example 37: Caco-2 Permeability Assay
The goal of this assay was to evaluate the intestinal absorption potential of drug candidates using Caco-2 cell lines.
HBSS buffer with 0.3% DMSO and 5 μM LY: add 150 μL DMSO and 50 μL LY (5 mM) into 50 ml HBSS buffer (pH 7.4).
HBSS buffer with 0.1% DMSO and 5 μM LY: add 50 μL DMSO and 50 μL LY (5 mM) into 50 mL HBSS buffer (pH 7.4).
HBSS buffer with 0.3% DMSO: add 150 μL DMSO into 50 ml HBSS buffer (pH 7.4).
HBSS buffer with 0.1% DMSO: add 50 μL DMSO into 50 ml HBSS buffer (pH 7.4).
Prepare HBSS buffer with 0.4% DMSO: add 200 μL DMSO into 50 ml HBSS buffer (pH 7.4).
Prepare HBSS buffer with 0.4% DMSO and 5 μM LY: add 200 μL DMSO and 50 μL LY (5 mM) into 50 ml HBSS buffer (pH 7.4).
4. Measure TEER Take cell culture plate out of incubator, wash the cell monolayers with HBSS buffer, and then measure TEER values at Rm temperature. 5. Centrifuge Centrifuge the compound solution (from step 3) at 4000 rpm for 5 min before loading to donor chambers. 6. Dosing Add solution based on the volumes listed in the following table (make sure to take extra 100 μL of donor sample for T0 as Backup).
7. Apical LYT0 samples To determine LY concentration in the apical chember, take 100 μL sample from apical chambers into an opaque plate for LYT0. 8. Prewarm Prewarm apical and basolateral plates at 37° C. for about 5 min, then begin transport by placing the apical plate onto basolateral plate. 9. Incubation Keep the plates in incubator at 37° C. for 90 min. 10. Standard Curve preparation
11. Transport termination Separate the apical plate from the basolateral plate after 90-min incubation.
Receiver sample: 60 μL of receiver sample+60 μL ACN with IS (Osalmid or Imipramine)
Study details: Test concentration 10 μM
Test systems: Caco-2/HBSS solution
Incubation conditions: 0, 90 min at 37° C.
Sample size: Duplicates (n=2)
Bioanalytical method: LC-MS/MS
For Millicell-24 Cell Culture Plates: surface area of the membrane=0.7 cm^2, VA=0.8 mL (A-to-B) or 0.4 mL (B-to-A)
1. Papp values were calculated based on calculated concentrations.
The compound numbers correspond to the compound numbers in Table 1.

T1 sequence (P61073 whole entry): as above

Structure (SMILES) | IC50 [1] [nM] | IC50 [2] [nM] | Papp A→B at 90 min, 10 μM (in vitro) [×10⁻⁶ cm/s] | Papp B→A at 90 min, 10 μM (in vitro) [×10⁻⁶ cm/s] | efflux ratio at 90 min, 10 μM (in vitro)
Cc1cccnc1[C@@H]1CCC[C@H](c2nc3cccc(N4CC5CCC(C4)N5)c3[nH]2)N1C [I-98] | 0.01 to 100 | 0.01 to 100 | 0.1 to 10 | 10 to 30 | > 30
Cc1cccnc1[C@@H]1CCC[C@H](c2nc3ccccc3n2CCCCN2CCN(C)CC2)N1C [I-40] | ≥ 1000 | 100 to 1000 | 0.1 to 10 | 10 to 30 | 0.1 to 10
Cc1cccnc1[C@@H]1CCC[C@H](c2nc3cccc(N4CCN(c5ccccn5)CC4)c3[nH]2)N1 [I-162] | ≥ 1000 | 100 to 1000 | 10 to 30 | 10 to 30 | 0.1 to 10
CN1CCN(c2cccc3nc([C@H]4CCC[C@@H](c5ncccc5OC5CC5)N4C)[nH]c23)CC1 [I-72] | ≥ 1000 | 100 to 1000 | 10 to 30 | 10 to 30 | 0.1 to 10
Cc1cc(F)cnc1[C@@H]1CCC[C@H](c2nccn2C2CCN(C)CC2)N1 [I-173] | ≥ 1000 | ≥ 1000 | 10 to 30 | 10 to 30 | 0.1 to 10
CCN1CCN(c2cccc3nc([C@H]4CCC[C@@H](c5ncccc5C(F)(F)F)N4C)[nH]c23)CC1 (relative stereo) [I-59] | ≥ 1000 | 0.01 to 100 |  |  | 
Cc1cccc(F)c1[C@@H]1CCC[C@H](c2nc3cccc(N4CCN(C)CC4)c3[nH]2)N1C [I-138] | ≥ 1000 | ≥ 1000 |  |  | 
COCCc1ccc(OCC(O)CNC(C)C)cc1 (stereo not drawn) [Metoprolol, reference compound] |  |  | > 10 | > 10 | 
Cc1cccnc1[C@@H]1CCC[C@H](c2nc3cccc(Oc4ccncc4)c3[nH]2)N1C [I-78] | ≥ 1000 | ≥ 1000 |  |  | 
Cc1cccnc1[C@@H]1CCC[C@H](c2nc3cccc(Oc4cccnc4)c3[nH]2)N1C [I-77] | ≥ 1000 | 100 to 1000 |  |  | 
Cc1cccnc1[C@@H]1CCC[C@H](c2nc3ccccc3n2CCCO)N1 [I-156] | ≥ 1000 | 100 to 1000 |  |  | 
Cc1cccnc1[C@@H]1CCCC(c2nccn2CCCc2ccccn2)N1 (stereo in doubt) [I-178] | ≥ 1000 | 100 to 1000 |  |  | 
COCCCn1c([C@H]2CCC[C@@H](c3ncccc3C)N2C)nc2ccccc21 [I-157] | ≥ 1000 | 0.01 to 100 |  |  | 

Second part, the compound after the results:

IC50 [1] [nM] | IC50 [2] [nM] | Papp A→B at 90 min, 10 μM (in vitro) [×10⁻⁶ cm/s] | Papp B→A at 90 min, 10 μM (in vitro) [×10⁻⁶ cm/s] | efflux ratio at 90 min, 10 μM (in vitro) | Structure (SMILES)
≥ 1000 | 100 to 1000 |  |  |  | Cc1cccnc1[C@@H]1CCC[C@H](c2nc3ccccc3n2CCc2ccccn2)N1C [I-8, 2-((2R,6S)-1-methyl-6-(3-methylpyridin-2-yl)piperidin-2-yl)-1-(2-(pyridin-2-yl)ethyl)-1H-benzo[d]imidazole]
0.01 to 100 | 0.01 to 100 | 10 to 30 | 10 to 30 | 0.1 to 10 | Clc1cccnc1[C@@H]1CCC[C@H](c2nc3cccc(N4CCN(C5CC5)CC4)c3[nH]2)N1 [I-143]
0.01 to 100 | 0.01 to 100 | 10 to 30 | 10 to 30 | 0.1 to 10 | CC(C)N1CCN(c2cccc3nc([C@H]4CCC[C@@H](c5ncccc5Cl)N4)[nH]c23)CC1 [I-148]
0.01 to 100 | 0.01 to 100 | 10 to 30 | 10 to 30 | 0.1 to 10 | CCN1CCN(c2cccc3nc([C@H]4CCC[C@@H](c5ncccc5Cl)N4)[nH]c23)CC1 [I-149]
100 to 1000 | 0.01 to 100 |  |  |  | Cc1cccnc1[C@@H]1CCC[C@H](c2nc3ccccc3n2CCCO)N1C [I-20, 3-(2-((2R,6S)-1-methyl-6-(3-methylpyridin-2-yl)piperidin-2-yl)-1H-benzo[d]imidazol-1-yl)propan-1-ol]
0.01 to 100 | 0.01 to 100 | 0.1 to 10 | 10 to 30 | > 30 | Cc1cccnc1[C@@H]1CCC[C@H](c2nc3ccccc3n2CCCN)N1C [I-2, 3-(2-((2R,6S)-1-methyl-6-(3-methylpyridin-2-yl)piperidin-2-yl)-1H-benzo[d]imidazol-1-yl)propan-1-amine]
0.01 to 100 | 0.01 to 100 | 0.1 to 10 | 10 to 30 | 10 to 30 | Cc1cccnc1[C@@H]1CCC[C@H](c2nc3cccc(N4CCNCC4)c3[nH]2)N1C [I-136]
100 to 1000 | 0.01 to 100 | 0.1 to 10 | 10 to 30 | > 30 | Cc1cccnc1[C@@H]1CCC[C@H](c2nc3cccc(N4CCN(C)CC4=O)c3[nH]2)N1C [I-73]
100 to 1000 | 0.01 to 100 |  |  |  | Cc1cccnc1[C@@H]1CCC[C@H](c2nc3ccccc3n2CCn2ccnc2)N1C [I-6, 1-(2-(1H-imidazol-1-yl)ethyl)-2-((2R,6S)-1-methyl-6-(3-methylpyridin-2-yl)piperidin-2-yl)-1H-benzo[d]imidazole]
0.01 to 100 | 0.01 to 100 |  |  |  | Cc1cccnc1[C@@H]1CCC[C@H](c2nc3ccccc3n2CCCCN)N1C [I-4, 4-(2-((2R,6S)-1-methyl-6-(3-methylpyridin-2-yl)piperidin-2-yl)-1H-benzo[d]imidazol-1-yl)butan-1-amine]
0.01 to 100 | 0.01 to 100 |  |  |  | CN1CCN(c2cccc3nc([C@H]4CCC[C@@H](c5ncccc5Cl)N4)n(C)c23)CC1 [I-124]
